The values that follow are results of earlier work, collected in patent US7807599B2, “Hydroconversion processes employing multi-metallic catalysts and method for making thereof” (Chevron U. S. A. Inc., priority 2007, dated 2010).

The data set has as its system rats. The note with it: as single oral dose to rats.

Turning to `O=CC(=O)O` [glyoxylic], the median lethal dose (LD50) (usually the dose at which mortality reaches 50%) is recorded as 3000 mg/kg.
